In experiment [1] the test system is M. tuberculosis (H37Rv strain). Briefly: Microplate Alamar Blue Assay (MABA) susceptibility assay in BACTEC 12B medium. The format is cell-based. The conditions noted are these: Mycobacterium tuberculosis. In general terms: Alamar Blue is a resazurin reagent that responds to reducing activity.
The test system of another experiment is monkey VERO cells. Briefly: VERO cell cytotoxicity assay (luminescent ATP cell viability, 72 hour exposure). The settings on record: Primates. The format is cell-based.
Where [2] appears, read: H37Rv strain, MABA, 90% reduction in fluorescence relative to controls, read-out: IC90 M. tuberculosis (H37Rv strain).
Setting [3] is: Table 1, H37Rv strain, read-out: IC90 value (v. M. tuberculosis).
[4] abbreviates: Vero, summary of Table 1, read-out: EC50 value (v. Monkey VERO Cells).
[5] abbreviates: VERO cells, 72 hour exposure, ATP luminescence, read-out: EC50 VERO cells.

Converted amounts (≈) assume the structure as drawn. Where two headings read alike, the source gives them in different places. Where only a bound is given, the exact number is not on record here.

In the case of `CC(C)(C)c1cc(NC(=O)CCCCNC(=N)N)c(SCCN)c(NC(=O)Nc2cc(C(C)(C)C)cc(NC(=O)CCCCNC(=N)N)c2SCCN)c1` [Compound 4], the IC90 (in general, the concentration at which the effect reaches the 90% level) in experiment [1] (setting [2]) is 18.4 µg/mL (≈ 23.4 µM); in experiment [1] (setting [3]), below 20 µg/mL. Besides, the EC50 in the experiment with monkey VERO cells (setting [4]) and with monkey VERO cells (setting [5]) was above 300 µg/mL each time.

For the compound `N=C(N)NCCCCC(=O)Nc1cccc(NC(=O)c2cc(C(=O)Nc3cccc(NC(=O)CCCCNC(=N)N)c3SCCN)ncn2)c1SCCN` [Compound 3], the values for the IC90 in experiment [1] (setting [2]) and in experiment [1] (setting [3]) were 3.6 µg/mL (≈ 4.61 µM) and below 5 µg/mL, respectively. For the same compound, the EC50 in the experiment with monkey VERO cells (setting [4]) and in the experiment on monkey VERO cells (setting [5]) was above 100 µg/mL in each case.

As for `CC(C)(C)c1cc(N)c(SCCNC(=N)N)c(NC(=O)c2cc(OCCNC(=N)N)cc(C(=O)Nc3cc(C(C)(C)C)cc(N)c3SCCNC(=N)N)c2)c1` [Compound 1], the IC90 is 2.2 µg/mL (≈ 2.77 µM) in experiment [1] (setting [2]) and below 5 µg/mL in experiment [1] (setting [3]). Also, the EC50 in the experiment with monkey VERO cells (setting [4]) and with monkey VERO cells (setting [5]) was above 300 µg/mL each time.

As for `CC(C)(C)c1cc(N)c(SCCNC(=N)N)c(NC(=O)c2cc(C(=O)Nc3cc(C(C)(C)C)cc(N)c3SCCNC(=N)N)c(OCCNC(=N)N)cc2OCCNC(=N)N)c1` [Compound 2], the IC90 in experiment [1] (setting [2]) was 4.5 µg/mL (≈ 5.03 µM); in experiment [1] (setting [3]), below 5 µg/mL. For the same compound, the EC50 in the experiment with monkey VERO cells (setting [4]) and in the experiment with monkey VERO cells (setting [5]) was above 300 µg/mL in each case.
